Laboratory results from patent US20080045499A1, “Preferential Inhibition of Presenilin-1” (Elan Pharmaceuticals, Inc., priority 2006, published 2008).
Like-named read-outs stand apart in the source and are kept apart here.

Tests used:
[1] = biological target: T1, Presenilin-1-comprised γ-secretase (Homo sapiens, UniProt P49768); assay: Aβ1-x ELISA in Presenilin-1 transfected PS1/PS2 double knockout mouse fibroblasts; type: cell-based
T1 construct: expressed in transfected cells; host or cells: mouse fibroblasts derived from PS1/PS2 double knockout cells, pCF vector
Description: (§1) A131-x represents any Aβ peptides longer than Aβ1-23, including Aβ38, Aβ40, and Aβ42, since Aβ1-x is defined operationally by an ELISA assay using proprietary antibody mAb 266 for capture and proprietary antibody mAb 3D6 for detection. The epitope for mAb266 is Aβ16-23, and the epitope for mAb 3D6 is Aβ1-5. […] Aβ40 ELISA employed antibodies mAb 266 as capture and 2G3 (specific for Ab40) as detection, respectively. Furthermore, Aβ42 ELISA employed antibodies mAb 266 as capture and 21F12 as detection, respectively. Hybridomas producing antibodies against Aβ16-23 were generated by standard murine fusion procedures as detailed in Kohler and Milstein (Nature 256:495 1975) and U.S. Pat. No. 4,666,829 which are hereby incorporated by reference in their entireties. See also “Detailed Description” herein. Briefly, two BALB/c mice immunized with Aβ13-28 conjugated to 2C-11 (a T-cell receptor monoclonal antibody) were sacrificed and the spleens removed. Mixed splenocytes were obtained by pressing the spleens through a 30 mesh stainless steel screen. These were fused with P3X63Ag8 murine myeloma cells (aminopterin sensitive) at a fusion ratio of 10:1 in 35% polyethylene-glycol. These cells were plated out in 96 well tissue culture plates in the presence of 2×10^6 thymocytes/ml. Hybridomas were selected for by growing the cells in the presence of aminopterin poisoned Dulbecco's modified Eagle's media augmented with hypoxanthine, thymine and 10% fetal bovine serum. Hybridomas were screened for reactivity against Aβ13-28 and AAP protein via ELISA. Positive clones were sub-cloned twice. Aliquots of the clones were frozen and stored in liquid nitrogen. Supernatants from positive clones were produced in large quantities for further purification of monoclonal antibodies.
(§2) For ELISA assays, each well of 96-well ELISA plates was coated with 100 μl of 10 μg/ml 266 in Well Coating Buffer (pH 8.5) at 4 degrees overnight, and blocked with 0.25% human BSA solution at 25 degrees for 120 minutes. The plate can be used directly without wash, after removing blocking solution.
(§3) ELISA assays were performed at room temperature. Fifty μl of conditioned medium from overnight culture of transfected cells, with or without gamma secretase inhibitors, were added to each well of ELISA plates, and incubated for 1 hour. After washing plates with Tris-buffered saline (TBS) plus 0.05% Tween-20, 50 μl biotinylated 3D6 antibody at 0.5 μg/ml was added to each well and incubate for 45 minutes. […] Next, plates were washed with Tris-buffered saline (TBS) plus 0.05% Tween-20, and 50 μl substrate (1-step slow TMB-Elisa, Pierce, Woburn, Mass., USA, catalogue number: 34024) was added to each well and incubated for 15 min. Finally, substrate reactions were terminate by adding to each well 15 ul 2 NH2SO4, and OD readings were obtained on SpectraMax Plus (Molecular Devices, Sunnyvale, Calif., USA). The Aβ concentration of samples was then obtained by comparing sample OD readings to those of standards.
(§4) EC50 values were derived by curve fitting of Aβ1-x levels, for samples treated with various concentrations of gamma secretase inhibitors, with XLfit software program (IDBS, Alameda, Calif., USA). Differences in EC50 values obtained for Presenilin-1 transfected cells and Presenilin-2 transfected cells exposed to a test compound served as an indicator of differential inhibition.
(§5) Transfected mouse fibroblasts derived from the PS1/PS2 double knockout cells are grown at 37 degree under 10% CO2 in Dulbecco's modified Eagle's medium (DMEM) containing 2-10% fetal bovine serum (FBS) and 100 μg/ml penicillin/streptomycin (Pen/Strp) (Invitrogen Corporation, Carlsbad, Calif., USA).
(§6) Cell culture medium is then removed from the transfected cell lines and analyzed for Aβ1-x levels by ELISA assay, as described in Example 1. ELISA assays are performed using ELISA plates coated with the mAb 266 to capture Aβ peptides and then by detecting Aβ peptides with biotinylated mAb 3D6.

[2] = biological target: T2, Presenilin-2-comprised γ-secretase (Homo sapiens, UniProt P49810); assay: Aβ1-x ELISA in Presenilin-2 transfected PS1/PS2 double knockout mouse fibroblasts; type: cell-based; conditions: for inhibition at 10 µM: compound concentration of 10 uM, estimated from the inhibition curve
T2 construct: expressed in transfected cells; host or cells: mouse fibroblasts derived from PS1/PS2 double knockout cells, pCF vector
Description: as §1, §2, §3, §4, §5, §6

[3] = tested on: Presenilin-1-comprised γ-secretase relative to Presenilin-2-comprised γ-secretase; assay: PS1/PS2 selectivity: ratio of EC50 in Presenilin-2 and Presenilin-1 transfected cells; type: cell-based, human; conditions: for PS2/PS1 EC50 ratio: EC50 of Presenilin-2 transfected cells over Presenilin-1 transfected cells
Description: as §4
as §6, with “3D6. EC50 values are derived for all of the test compounds. Differences in EC50 values obtained for Presenilin-1 transfected cells and Presenilin-2 transfected cells exposed to a test compound serve as an indicator of differential inhibition.” for “3D6.”
For example, several tested compounds are sulfonamide compounds, while several are non-sulfonamide compounds. The ratio of the EC50 value obtained for Presenilin-2 transfected cells and Presenilin-1 transfected cells (indicated in the last column of Table I) indicates the degree to which the test compound is capable of preferentially inhibiting Presenilin-1. […] In Table 2, the values shown in columns A, B and C are EC50 values (nM). Where inhibition was very low, EC50 values were not generated by the program; thus EC50 values are not provided. Rather, percent of inhibition was estimated based on the inhibition curve generated by the program. Percentages indicate percentage inhibition at a compound concentration of 10 uM. […]

293sw = 293sw IC50 of gamma-secretase inhibitors; type: cell-based
[4] = column A, Aβ1-x, Presenilin-1 transfected cells, overnight, read-out: PS1 EC50 (nM) A
[5] = column B, Aβ1-x, Presenilin-1 transfected cells, overnight, read-out: PS1 EC50 (nM) B
[6] = column A, read-out: PS2 percentage inhibition, column A
[7] = column B, read-out: PS2 percentage inhibition, column B
[8] = column A, Aβ1-x, Presenilin-2 transfected cells, overnight, read-out: PS2 EC50* (nM) A
[9] = column B, Aβ1-x, Presenilin-2 transfected cells, overnight, read-out: PS2 EC50* (nM) B
[10] = mean values from 2 independent experiments (FIG. 11)

Row | SMILES | EC50 [1, 4] [nM] | EC50 [1, 5] [nM] | PS2/PS1 EC50 ratio [3] | EC50 [2, 8] [nM] | EC50 [2, 9] [nM] | IC50 (293sw) [nM] | also measured
1 | COc1ccc(CN([C@@H](CO)CC(C)C)S(=O)(=O)c2ccc(Cl)cc2)cc1OC | 385 | 364 | ˜26 |  |  | 123 | inhibition at 10 µM [2, 6]: 47%; inhibition at 10 µM [2, 7]: 48%
2 | O=C1NCCCC[C@H]1N(CCCN1C(=O)c2ccccc2C1=O)S(=O)(=O)c1ccc(Cl)cc1 | 3720 | 6960 | >10 |  |  | 221 | inhibition at 10 µM [2, 6]: 28%; inhibition at 10 µM [2, 7]: 4%
3 | CCCCN([C@@H]1CCCCNC1=O)S(=O)(=O)c1ccc(Cl)cc1 | 1410 | 928 | >10 |  |  | 192 | inhibition at 10 µM [2, 6]: 26%; inhibition at 10 µM [2, 7]: 15%
4 | O=C1NCCCC[C@H]1N(Cc1cnc(N2CCCCC2)s1)S(=O)(=O)c1ccc(Cl)cc1 | 370 | 263 | ˜30 |  |  | 121 | inhibition at 10 µM [2, 6]: 47%; inhibition at 10 µM [2, 7]: 44%
5 | C/C(=C\c1ccccc1)CN([C@@H]1CCNC1=O)S(=O)(=O)c1ccc(Cl)cc1 | 2170 | 1980 | >10 |  |  | 337 | inhibition at 10 µM [2, 6]: 1%; inhibition at 10 µM [2, 7]: 0%
6 | O=C1NCCCC[C@H]1N(C/C=C/c1cccnc1)S(=O)(=O)c1ccc(Cl)cc1 | 46 | 65 | 61 | 4000 | 2780 | 42 | 
7 | O=C1NCCCC[C@H]1N(Cc1ccc(Br)cc1)S(=O)(=O)CC(F)(F)F | 1280 | 686 | >10 |  |  | 308 | inhibition at 10 µM [2, 6]: 20%; inhibition at 10 µM [2, 7]: 19%
8 | CSc1ncccc1-c1nc(CN([C@@H]2CCCCNC2=O)S(=O)(=O)c2ccc(Cl)cc2)no1 | 212 | 116 | 11 | 2100 | 2580 | 112 | 
9 | CCC(C)N(C(C)CC)S(=O)(=O)c1ccc(Cl)nc1 (stereo not drawn) | 1390 | 787 | 4 | 5860 | 3320 | 388 | 
10 | C[C@H](NC(=O)c1ccc(CN([C@@H]2CCCCNC2=O)S(=O)(=O)c2ccc(Cl)cc2)cc1)c1ccccc1 | 143 | 139 | 4 | 465 | 777 |  | 
11 | C[C@@H](NC(=O)c1ccc(CN([C@@H]2CCCCNC2=O)S(=O)(=O)c2ccc(Cl)cc2)cc1)c1ccccc1 | 57 | 44 | 1.5 | 60 | 91 | 16 | 
12 | O=C(NCc1ccccc1)c1ccc(CN([C@@H]2CCCCNC2=O)S(=O)(=O)c2ccc(Cl)cc2)cc1 | 19 | 19 | 1.8 | 30 | 38 | 10 | 
13 | C[C@H](NC(=O)[C@@H](O)c1cc(F)cc(F)c1)C(=O)N[C@@H]1C(=O)N(C)c2ccccc2-c2ccccc21 |  |  |  |  |  | 0.064 | 
14 | COc1ccc(CN([C@H]2CCCCNC2=O)S(=O)(=O)c2ccc(Cl)cc2)cc1OC |  |  |  |  |  | 10000 | EC50 ([1]; column A, bound given in μM, read-out: PS1 EC50 A): > 10000 nM; EC50 ([1]; column B, bound given in μM, read-out: PS1 EC50 B): > 10000 nM; EC50 ([2]; column A, bound given in μM, read-out: PS2 EC50 A): > 10000 nM; EC50 ([2]; column B, bound given in μM, read-out: PS2 EC50 B): > 10000 nM
15 | O=C1NCCCC[C@H]1N(Cc1cc2ccccc2o1)S(=O)(=O)c1ccc(Cl)cc1 | 30 | 63 | 46 | 2420 | 1880 |  | EC50 ([1]; column C, Aβ1-x, Presenilin-1 transfected cells, overnight, read-out: PS1 EC50 (nM) C): 50 nM; EC50 ([2]; column C, Aβ1-x, Presenilin-2 transfected cells, overnight, read-out: PS2 EC50* (nM) C): 2380 nM
16 | C[C@H](NC(=O)Cc1cc(F)cc(F)c1)C(=O)N[C@H](C(=O)OC(C)(C)C)c1ccccc1 [DAPT, reference compound] |  |  |  |  |  |  | fold more selective for PS2 [3, 10]: 2 fold
17 | CC(C)C[C@H](NC(=O)[C@H](Cc1ccccc1)C[C@@H](O)[C@H](Cc1ccccc1)NC(=O)OC(C)(C)C)C(=O)N[C@@H](Cc1ccccc1)C(N)=O [L-685,458, reference compound] |  |  |  |  |  |  | fold more selective for PS1 [3, 10]: ~3 fold
18 | C[C@H](c1ccc(F)cc1CCCC(=O)O)N(c1cc(F)ccc1F)S(=O)(=O)c1ccc(Cl)cc1 [reference compound] | 21 | 17 | 12 | 223 | 247 |  | 

Second part, led by results:

Row | EC50 [1, 4] [nM] | EC50 [1, 5] [nM] | PS2/PS1 EC50 ratio [3] | EC50 [2, 8] [nM] | EC50 [2, 9] [nM] | SMILES | IC50 (293sw) [nM] | also measured
19 | 228 | 425 | ˜30 |  |  | COc1ccc(CN(C2CCCCNC2=O)S(=O)(=O)c2ccc(Cl)cc2)cc1OC (stereo not drawn) |  | inhibition at 10 µM [2, 6]: 45%; inhibition at 10 µM [2, 7]: 50%
20 | 49 | 48 | 10 | 606 | 404 | COc1ccc(CN(C2CCCCC2C)S(=O)(=O)c2ccc(Cl)cc2)cc1OC (stereo not drawn) | 55 | 
21 | 136 | 161 | 22 | 3000 | 3460 | COc1ccc(CN(C2CC(C)CCC2C)S(=O)(=O)c2ccc(Cl)cc2)cc1 (stereo not drawn) | 176 | 
22 | 105 | 98 | 8 | 750 | 809 | Cc1nc(-c2ccc(CN([C@@H]3CCCCNC3=O)S(=O)(=O)c3ccc(Cl)cc3)cc2)no1 | 44 | 
23 | 18 | 23 | 47 | 922 | 951 | O=C1NCCCC[C@H]1N(Cc1ccc2snnc2c1)S(=O)(=O)c1ccc(Cl)cc1 | 8 | 
24 | 36 | 31 | 37 | 1410 | 1040 | O=C1NCCCC[C@H]1N(Cc1ccc2nccnc2c1)S(=O)(=O)c1ccc(Cl)cc1 | 9 | 
